Experimental data as given in ChEMBL document CHEMBL1146459, “Production of biologically active taxoids by a callus culture of Taxus cuspidata” (2004).

Legend:
[1] = Reversal of multidrug resistance in human 2780AD cells assessed as [3H]vincristine accumulation at 0.1 ug/mL after 2 hrs relative to verapamil; type: functional, A2780 ADR
[2] = Reversal of multidrug resistance in human 2780AD cells assessed as [3H]vincristine accumulation at 1 ug/mL after 2 hrs relative to verapamil; type: functional, A2780 ADR
[3] = Growth inhibition of human HBC4 cells after 48 hrs by SRB assay; type: functional; conditions: HBC4, 48 h
[4] = Growth inhibition of human BSY1 cells after 48 hrs by SRB assay; type: functional; conditions: BSY-1, 48 h
[5] = Growth inhibition of human HBC5 cells after 48 hrs by SRB assay; type: functional; conditions: HBC5, 48 h
MDA-MB-231 = test: Growth inhibition of human MDA-MB-231 cells after 48 hrs by SRB assay; type: functional; conditions: MDA-MB-231, 48 h
SF-268 = test: Growth inhibition of human SF268 cells after 48 hrs by SRB assay; type: functional; conditions: SF-268, 48 h
SF-295 = test: Growth inhibition of human SF295 cells after 48 hrs by SRB assay; type: functional; conditions: SF-295, 48 h
SNB-78 = test: Growth inhibition of human SNB78 cells after 48 hrs by SRB assay; type: functional; conditions: SNB-78, 48 h
KM12 = test: Growth inhibition of human KM12 cells after 48 hrs by SRB assay; type: functional; conditions: KM12, 48 h
NCI-H23 = test: Growth inhibition of human NCI-H23 cells after 48 hrs by SRB assay; type: functional; conditions: NCI-H23, 48 h
NCI-H522 = test: Growth inhibition of human NCI-H522 cells after 48 hrs by SRB assay; type: functional; conditions: NCI-H522, 48 h
DMS-273 = test: Growth inhibition of human DMS273 cells after 48 hrs by SRB assay; type: functional; conditions: DMS-273, 48 h
LOX IMVI = test: Growth inhibition of human LOXIMVI cells after 48 hrs by SRB assay; type: functional
OVCAR-4 = test: Growth inhibition of human OVCAR4 cells after 48 hrs by SRB assay; type: functional; conditions: OVCAR-4, 48 h
OVCAR-5 = test: Growth inhibition of human OVCAR5 cells after 48 hrs by SRB assay; type: functional; conditions: OVCAR-5, 48 h
SK-OV-3 = test: Growth inhibition of human SKOV3 cells after 48 hrs by SRB assay; type: functional; conditions: SK-OV-3, 48 h
ACHN = test: Growth inhibition of human ACHN cells after 48 hrs by SRB assay; type: functional
St-4 = test: Growth inhibition of human St-4 cells after 48 hrs by SRB assay; type: functional; conditions: St-4, 48 h
MKN-45 = test: Growth inhibition of human MKN45 cells after 48 hrs by SRB assay; type: functional; conditions: MKN-45, 48 h
MKN-74 = test: Growth inhibition of human MKN74 cells after 48 hrs by SRB assay; type: functional; conditions: MKN-74, 48 h
PC-3 = test: Growth inhibition of human PC3 cells after 48 hrs by SRB assay; type: functional; conditions: PC-3, 48 h
[6] = read-out: LC50 (the source's name)
[7] = read-out: pLC50 (the source's name) (converted)

## C=C1[C@@H](OC(C)=O)CC[C@]2(C)[C@@H]1C[C@@H]1C[C@H](OC(C)=O)C(C)=C([C@@H](O)[C@@H]2OC(=O)/C=C/c2ccccc2)C1(C)C
[1]
  Activity: 139%
[2]
  Activity: 191%
[3]; [6]
  CC50: 100 µM
[3]; read-out: TGI
  TGI: 100 µM
[3]; read-out: pGI50 (converted)
  GI50: > 100 µM
[3]; [7]
  CC50: 100 µM
[3]; read-out: pTGI (converted)
  TGI: 100 µM
[4]; read-out: GI50
  GI50: 6.9 µM
[4]; read-out: TGI
  TGI: 82 µM
[4]; read-out: pGI50 (converted)
  GI50: 6.92 µM
[4]; read-out: pTGI (converted)
  TGI: 87.1 µM
[5]; [6]
  CC50: 100 µM
[5]; read-out: TGI
  TGI: 100 µM
[5]; read-out: pGI50 (converted)
  GI50: > 100 µM
[5]; [7]
  CC50: 100 µM
[5]; read-out: pTGI (converted)
  TGI: 100 µM
MDA-MB-231; read-out: GI50
  GI50: 16 µM
MDA-MB-231; read-out: TGI
  TGI: 100 µM
MDA-MB-231; read-out: pGI50 (converted)
  GI50: 16.2 µM
MDA-MB-231; read-out: pTGI (converted)
  TGI: 100 µM
SF-268; read-out: GI50
  GI50: 43 µM
SF-268; [6]
  CC50: 100 µM
SF-268; read-out: TGI
  TGI: 100 µM
SF-268; read-out: pGI50 (converted)
  GI50: 10.7 µM
SF-268; [7]
  CC50: 100 µM
SF-268; read-out: pTGI (converted)
  TGI: 100 µM
SF-295; read-out: GI50
  GI50: 10 µM
SF-295; read-out: TGI
  TGI: 100 µM
SF-295; read-out: pGI50 (converted)
  GI50: 10.5 µM
SF-295; read-out: pTGI (converted)
  TGI: 100 µM
SNB-78; read-out: GI50
  GI50: 3.2 µM
SNB-78; read-out: TGI
  TGI: 100 µM
SNB-78; read-out: pGI50 (converted)
  GI50: 3.16 µM
SNB-78; read-out: pTGI (converted)
  TGI: 100 µM
KM12; read-out: GI50
  GI50: 6.4 µM
KM12; [6]
  CC50: > 100 µM
KM12; read-out: TGI
  TGI: 100 µM
KM12; read-out: pGI50 (converted)
  GI50: 6.46 µM
KM12; read-out: pLC50 (converted)
  CC50: > 100 µM
KM12; read-out: pTGI (converted)
  TGI: 100 µM
NCI-H23; read-out: GI50
  GI50: > 100 µM
NCI-H23; [6]
  CC50: 100 µM
NCI-H23; read-out: TGI
  TGI: 100 µM
NCI-H23; read-out: pGI50 (converted)
  GI50: > 100 µM
NCI-H23; [7]
  CC50: 100 µM
NCI-H23; read-out: pTGI (converted)
  TGI: 100 µM
NCI-H522; read-out: GI50
  GI50: 3.1 µM
NCI-H522; [6]
  CC50: 100 µM
NCI-H522; read-out: TGI
  TGI: 81 µM
NCI-H522; read-out: pGI50 (converted)
  GI50: 3.09 µM
NCI-H522; [7]
  CC50: 100 µM
NCI-H522; read-out: pTGI (converted)
  TGI: 100 µM
DMS-273; read-out: GI50
  GI50: 4.2 µM
DMS-273; [6]
  CC50: 100 µM
DMS-273; read-out: TGI
  TGI: 100 µM
DMS-273; read-out: pGI50 (converted)
  GI50: 4.17 µM
DMS-273; [7]
  CC50: 100 µM
DMS-273; read-out: pTGI (converted)
  TGI: 100 µM
LOX IMVI; read-out: GI50
  GI50: 38 µM
LOX IMVI; [6]
  CC50: 100 µM
LOX IMVI; read-out: TGI
  TGI: 100 µM
LOX IMVI; read-out: pGI50 (converted)
  GI50: 38 µM
LOX IMVI; [7]
  CC50: 100 µM
LOX IMVI; read-out: pTGI (converted)
  TGI: 100 µM
OVCAR-4; read-out: GI50
  GI50: 22 µM
OVCAR-4; [6]
  CC50: 100 µM
OVCAR-4; read-out: TGI
  TGI: 100 µM
OVCAR-4; read-out: pGI50 (converted)
  GI50: 22.4 µM
OVCAR-4; [7]
  CC50: 100 µM
OVCAR-4; read-out: pTGI (converted)
  TGI: 100 µM
OVCAR-5; read-out: GI50
  GI50: 32 µM
OVCAR-5; read-out: TGI
  TGI: 100 µM
OVCAR-5; read-out: pGI50 (converted)
  GI50: 32.4 µM
OVCAR-5; read-out: pTGI (converted)
  TGI: 100 µM
SK-OV-3; read-out: GI50
  GI50: > 100 µM
SK-OV-3; [6]
  CC50: 100 µM
SK-OV-3; read-out: TGI
  TGI: 100 µM
SK-OV-3; read-out: pGI50 (converted)
  GI50: > 100 µM
SK-OV-3; [7]
  CC50: 100 µM
SK-OV-3; read-out: pTGI (converted)
  TGI: 100 µM
ACHN; read-out: GI50
  GI50: 87 µM
ACHN; [6]
  CC50: 100 µM
ACHN; read-out: TGI
  TGI: 100 µM
ACHN; read-out: pGI50 (converted)
  GI50: 89.1 µM
ACHN; [7]
  CC50: 100 µM
ACHN; read-out: pTGI (converted)
  TGI: 100 µM
St-4; read-out: GI50
  GI50: 24 µM
St-4; [6]
  CC50: 100 µM
St-4; read-out: TGI
  TGI: 100 µM
St-4; read-out: pGI50 (converted)
  GI50: 24 µM
St-4; [7]
  CC50: 100 µM
St-4; read-out: pTGI (converted)
  TGI: 100 µM
MKN-45; [6]
  CC50: 100 µM
MKN-45; read-out: TGI
  TGI: 100 µM
MKN-45; read-out: pGI50 (converted)
  GI50: > 100 µM
MKN-45; [7]
  CC50: 100 µM
MKN-45; read-out: pTGI (converted)
  TGI: 100 µM
MKN-74; read-out: GI50
  GI50: 9.5 µM
MKN-74; [6]
  CC50: 100 µM
MKN-74; read-out: TGI
  TGI: 100 µM
MKN-74; read-out: pGI50 (converted)
  GI50: 9.55 µM
MKN-74; [7]
  CC50: 100 µM
MKN-74; read-out: pTGI (converted)
  TGI: 100 µM
PC-3; read-out: GI50
  GI50: 5.2 µM
PC-3; read-out: TGI
  TGI: 100 µM
PC-3; read-out: pGI50 (converted)
  GI50: 5.25 µM
PC-3; read-out: pTGI (converted)
  TGI: 100 µM
